Results on two compounds are retold here after patent publication US20260007641A1, “PHARMACEUTICAL COMPOSITION FOR TREATING AND RESISTING BLOOD COAGULATION AND USE THEREOF” (CHENGDU SHIBEIKANG BIOMEDICAL TECHNOLOGY CO., LTD., priority 2022, published 2026).

Data set [1] can be described thus: Solubility and BCS classification of compound A. In kind it is physicochemical.
The conditions of data set [2]: from Literature 1; cited from earlier work.

In the case of `COC(=O)[C@H](c1ccccc1Cl)N1CC[C@@H]2SC(=O)C=C2C1` [Compound A, methyl(S)-2-(2-chlorophenyl)-2-((S)-2-oxo-2,6,7,7a-tetrahydrothiophene [3,2-c]pyridin-5 (4H)-yl)acetate], the “BCS (Biopharmaceutics Classification System) class” value in data set [1] was “low solubility and high permeability”. Further, the solubility in acetone result in data set [1] (acetone) is recorded as “very slightly soluble”. For the same compound, the solubility in ethanol result in data set [1] (ethanol) is recorded as “slightly soluble”. The solubility in methanol result in data set [1] (methanol) is “hardly soluble”. Further, in data set [1] (toluene), the solubility in toluene entry was “almost insoluble”. In addition, in data set [1] (water), the solubility in water result was “very slightly soluble”.
`COC(=O)[C@H](c1ccccc1Cl)N1CCc2sccc2C1` [clopidogrel]: the “share of clopidogrel metabolized to compound A after oral intake” value in data set [2] is recorded as 15%.
